Measurements taken from US8680087B2, “Macrocyclic amides, pharmaceutical compositions, preparation methods and uses thereof” (Yuxi Winhey Bio-Tech Co., Ltd., priority 2009, dated 2014).
Converted amounts (≈) assume the structure as drawn. Where two headings read alike, the source gives them in different places.

Tests used:
Format in all cases: cell-based
[1] = test system: S. aureus MSRA (clinical isolates of methicilllin-resistant strains); experiment: Antibacterial activity test, standard dilution method (MIC); conditions: Staphylococcus aureus
Procedure: (§1) The following antibacterial activity test of WH-21091 was conducted to illustrate the antibacterial activity of WH-21091. Standard dilution method was adopted, and the measurement was conducted under 35° C. After culturing for 24 hours, the minimum inhibition concentrations (MICs) of WH-21091 were obtained.

Escherichia coli = experiment: as above; conditions: 24 hr and 48 hr, trypticase soy broth, 35° C.
Procedure: as §1

Enterococcus faecalis = experiment: as above; conditions: 24 hr and 48 hr, trypticase soy broth, 35° C.
Procedure: as §1

Streptococcus pyogenes = experiment: as above; conditions: 24 hr and 48 hr, trypticase soy broth, 35° C.
Procedure: as §1

[2] = test system: Staphylococcus epidermidis; experiment: as above; conditions: 24 hr and 48 hr, trypticase soy broth, 35° C.
Procedure: as §1

Pseudomonas aeruginosa = experiment: as above; conditions: 24 hr and 48 hr, trypticase soy broth, 35° C.
Procedure: as §1

cervix cancer Hela cells = experiment: In vitro antitumor activity test (method of Skehan et al.); conditions: Homo sapiens
Procedure: (§2) Following the method described by Skehan et al. (1990), in vitro antitumor activity tests of WH-21091 on human lung cancer H460, breast cancer MCF-7 and cervix cancer Hela cells were conducted.

[3] = test system: human lung cancer H460 cells; experiment: as above; conditions: NCI-H460
Procedure: as §2

[4] = test system: breast cancer MCF-7 cells; experiment: as above; conditions: Homo sapiens, MCF7; MCF-7 breast cancer cells
Procedure: as §2

Row | SMILES | MIC [1] [µg/mL] | MIC (Escherichia coli) [µg/mL] | MIC (Enterococcus faecalis) [µg/mL] | MIC (Streptococcus pyogenes) [µg/mL] | MIC [2] [µg/mL] | MIC (Pseudomonas aeruginosa) [µg/mL] | MIC ([1]; S. aureus MSRA, clinical isolates of methicilllin-resistant strains, 24 hr and 48 hr, trypticase soy broth, 35° C., read-out: MIC) [µg/mL] | IC50 (cervix cancer Hela cells) [µg/mL] | IC50 [3] [µg/mL] | IC50 [4] [µg/mL]
1 | CC[C@H]1OC(=O)[C@H](C)[C@@H](O[C@H]2C[C@@](C)(OC)[C@@H](O)[C@H](C)O2)[C@H](C)[C@@H](O[C@@H]2O[C@H](C)C[C@H](N(C)C)[C@H]2O)[C@](C)(O)C[C@@H](C)C(=O)[C@H](C)[C@@H](O)[C@]1(C)O [erythromycin, reference compound] | > 32 | 1 (≈ 1.36 µM) | > 32 | 0.03 (≈ 0.0409 µM) | 0.25 (≈ 0.341 µM) | > 32 | – | – | – | –
2 | CC1CC(C)CC(C(O)Cc2cccc(O)c2C(=O)O)NC(=O)C(O)C(O)C(O)C1 (stereo not drawn) [WH-21091] | – | 4 (≈ 9.4 µM) | 32 (≈ 75.2 µM) | 4 (≈ 9.4 µM) | 8 (≈ 18.8 µM) | > 32 | 4 (≈ 9.4 µM) | 0.24 (≈ 0.564 µM) | 0.1 (≈ 0.235 µM) | 0.81 (≈ 1.9 µM)
